Test results taken from patent publication US20170119907A1, “Targeted Therapeutics” (MEDIVATION TECHNOLOGIES, INC., priority 2014, published 2017).

What was measured:
Raji cells [1] = experiment: Binding to and staining of Raji cells (Example B1b); format: cell-based; details: photomicrographs; for binding to Raji cells: FIG. 2B, Example B1b; for binding to and staining of Raji cells: FIG. 4B
Raji cells [2] = experiment: Adherence of Raji cells to rabbit dorsal femoral condyle explants; format: cell-based; details: photomicrographs, FIG. 6B
Raji cells [3] = experiment: Binding to Raji cells (visual inspection of staining); format: cell-based; details: 10 μM in PBS, 30 min; FIG. 4B
Protocol: Raji cells were incubated in PBS without Compounds 4 or 20 or with 10 μM Compound 4 or 10 μM Compound 20 in PBS for 30 min and then washed twice with 1 mL PBS. Samples were visually inspected to determine staining

[4] = test system: rabbit dorsal femoral condyle explants; experiment: Binding to rabbit dorsal femoral condyle explants (fluorescence staining); details: 100 μM in PBS, 30 min; 530/600 nm; FIGS. 5A, 5B
Protocol: Rabbit dorsal femoral condyle explants were incubated with PBS or 100 μM Compound 4 or Compound 20 in PBS for 30 min. Explants were washed twice in excess PBS. Staining of explants was determined using the 530/600 nm filter set on the Molecular Imaging Gel Logic system.

[5] = test system: human MSCs / rabbit dorsal femoral condyle explants; experiment: Adherence of calcein-labeled human MSCs to rabbit dorsal femoral condyle explants; format: cell-based; details: MSCs incubated with compound (Compound 4: 5 μM or 10 μM), 30 min or 10 min; 475/535 nm; FIG. 6A
Protocol: Human MSCs were labeled with calcein for 30 min, washed with PBS, and incubated with Compound 4 (5 μM or 10 μM) or with PBS for 30 min. Rabbit dorsal femoral condyle explants were then incubated for 30 min with (1) the PBS-incubated, calcein-labeled MSCs, (2) the calcein-labeled MSCs incubated with 5 μM Compound 4, or (3) the calcein-labeled MSCs incubated with 10 μM Compound 4. Explants were washed twice with excess PBS, and the 475/535 nm filter set on the Molecular Imaging Gel Logic system was used to detect the binding of MSCs to the explants by detecting the calcein. In another experiment, the procedure was repeated with two batches of Compound 4, and with Compound 20, with an incubation time of 10 min instead of 30 min.

[6] = test system: Raji cells / rabbit dorsal femoral condyle explants; experiment: Adherence of calcein-labeled Raji cells to rabbit dorsal femoral condyle explants; format: cell-based; details: cells incubated with 10 μM compound in PBS, 30 min; 475/535 nm; FIG. 6B
Protocol: Raji cells were labeled with calcein for 30 min, washed with PBS, and incubated with Compound 4 or Compound 20 (10 μM in PBS) or with PBS for 30 min. Cells were washed in PBS. Rabbit dorsal femoral condyle explants were then incubated for 30 min with (1) the PBS-incubated, calcein-labeled Raji cells or (2) the calcein-labeled Raji cells that had been incubated with 10 μM Compound 4 or Compound 20. Explants were washed twice with excess PBS, and the 475/535 nm filter set on the Molecular Imaging Gel Logic system was used to detect the binding of […] to the explants by detecting the calcein.

[7] = test system: MSCs from sheep bone marrow; experiment: Differentiation of sheep MSCs to chondrocytes in pellet culture (modified Bern Score); format: cell-based; details: for Cell Distance / Matrix Stain / Morphology: score 0-3; for Final Score (Bern Score): score 0-9
Protocol: Compounds of the invention were assessed in an in vitro pellet cell culture model of chondrogenesis.
Conditions tested were: • a. (1) Priming: exposure of cells to TGFβ3 prior to incubation with Compound 4 or Compound 20; • b. (2) Dose: Concentration of Compound 4 or Compound 20 that cells were incubated with prior to pellet culture; and • c. (3) Media: presence or absence of TGFβ3 in the media used for the 3-week pellet culture duration.
A population of cells enriched for MSCs from sheep bone marrow was harvested, cultured and expanded. Cells from passage 3 (P3) were incubated with either chondrogenic differentiation medium for the Priming “+” groups or chondrogenic differentiation medium without TGFβ3 for the Priming “−” groups. Following centrifugation at 400×g for 5 min and gentle removal of the supernatant, cells were re-suspended with the appropriate number of cells in Compound 4 or Compound 20 in 1×PBS, pH 7, at following concentrations: 10 μM, 3.16 μM, 1 μM, and 0.316 μM of Compound 4; or 10 μM and 1 μM of Compound 20. For control conditions, cells were incubated in 1×PBS at pH 7. All treatment groups were then incubated for 30 min in the dark with nutation. Following centrifugation at 400×g for 5 min and gentle removal of the supernatant, cells were re-suspended and washed with 1×PBS at pH 7 and spun at 400×g for 5 min to remove supernatant. Depending on the condition, cells were re-suspended cells in chondrogenic differentiation medium OR in chondrogenic medium without TGFb3. Cells were counted, and approximately 2.5×10^5 cells were plated into polypropylene 96-well plates incubated under standard pellet culture conditions for three weeks. Medium was changed 3× weekly.
Pellets were fixed in 10% formalin for at least 8 hours and then infiltrated with paraffin wax. Sections were then cut at approximately 5 microns and stained using safranin-orange, Fast Green, Haematoxylin-Eosin, and 1% Toluidine Blue.
Histological grading was performed according to a modified Bern Score to assess chondrogenic morphology of the cells and any matrix deposition by the cells according to the following three criteria:
The subcomponents of the Bern Score are additive. Accordingly, the Bern Score presents a maximum total score of 9 representing the best possible score and minimum score of 0 representing no chondrogenesis.
In this Example, the Bern Score for Control pellets is a proxy for chondrogenic capacity of the cell population using a standard pellet culture protocol. […] Pellets that were formed using the 30 minute incubation protocol with only PBS replacing Compound 4 (0 μM Compound 4) are referred to as “PBS pellets.”

[8] = Differentiation Medium +, TGFβ3 Priming +, 0.316 μM
[9] = Differentiation Medium +, TGFβ3 Priming +, 1 μM
[10] = Differentiation Medium +, TGFβ3 Priming +, 3.16 μM
[11] = Differentiation Medium +, TGFβ3 Priming +, 10 μM
[12] = Differentiation Medium +, TGFβ3 Priming −, 0.316 μM
[13] = Differentiation Medium +, TGFβ3 Priming −, 1 μM
[14] = Differentiation Medium +, TGFβ3 Priming −, 3.16 μM
[15] = Differentiation Medium +, TGFβ3 Priming −, 10 μM
[16] = Differentiation Medium −, TGFβ3 Priming +, 0.316 μM
[17] = Differentiation Medium −, TGFβ3 Priming +, 1 μM
[18] = Differentiation Medium −, TGFβ3 Priming +, 3.16 μM
[19] = Differentiation Medium −, TGFβ3 Priming +, 10 μM

Cc1cc2nc3cc(C)c(NCCCCCCCCNc4cc5c(cc4C)nc4cc(C)c(N)cc4[n+]5-c4ccccc4)cc3[n+](-c3ccccc3)c2cc1N.[Cl-].[Cl-] [Compound 4, 7,7′-(octane-1,8-diylbis(azanediyl))bis(3-amino-2,8-dimethyl-5-phenylphenazin-5-ium) chloride] was tested, and the “binding to Raji cells” value (Raji cells [1]) was “binding”, the “binding to and staining of Raji cells” value (Raji cells [1]) was “bind to and stain” and the “adherence of Raji cells to rabbit dorsal femoral condyle explants” value (Raji cells [2]) was “promote adherence”. For the same compound, the “Binding to Raji cells (visual staining)” value (Raji cells [3]) was “bind to Raji cells”, the “Binding to rabbit dorsal femoral condyle explants (fluorescence)” value [4] was “strong fluorescence” and the “Adherence of calcein-labeled human MSCs to explants” value [5] was “promote adherence”. For the same compound, the “Adherence of calcein-labeled Raji cells to explants” value [6] was “promoted adherence”, the “Chondrogenic capacity (in words)” value ([7]; 3.16 μM and differentiation medium) was “good chondrogenic capacity” and the “Cell Distance” value [7, 8] was 3. The “Matrix Stain” value [7, 8] was 3, the Morphology [7, 8] was 3 and the “Final Score (Bern Score)” value [7, 8] was 9. For the same compound, the “Cell Distance” value [7, 9] was 2.5, the “Matrix Stain” value [7, 9] was 3 and the Morphology [7, 9] was 2. The “Final Score (Bern Score)” value [7, 9] was 7.5, the “Cell Distance” value [7, 10] was 2 and the “Matrix Stain” value [7, 10] was 2. For the same compound, the Morphology [7, 10] was 2, the “Final Score (Bern Score)” value [7, 10] was 6 and the “Cell Distance” value [7, 11] was 0. For the same compound, the “Matrix Stain” value [7, 11] was 0, the Morphology [7, 11] was 0 and the “Final Score (Bern Score)” value [7, 11] was 0. For the same compound, the “Cell Distance” value [7, 12] was 2.5, the “Matrix Stain” value [7, 12] was 3 and the Morphology [7, 12] was 2.5. For the same compound, the “Final Score (Bern Score)” value [7, 12] was 8, the “Cell Distance” value [7, 13] was 2 and the “Matrix Stain” value [7, 13] was 2.5. The Morphology [7, 13] was 2, the “Final Score (Bern Score)” value [7, 13] was 6.5 and the “Cell Distance” value [7, 14] was 2. For the same compound, the “Matrix Stain” value [7, 14] was 2, the Morphology [7, 14] was 2 and the “Final Score (Bern Score)” value [7, 14] was 6. For the same compound, the “Cell Distance” value [7, 15] was 0, the “Matrix Stain” value [7, 15] was 0.5 and the Morphology [7, 15] was 0. The “Final Score (Bern Score)” value [7, 15] was 0.5, the “Cell Distance” value [7, 16] was 0 and the “Matrix Stain” value [7, 16] was 0. For the same compound, the Morphology [7, 16] was 0, the “Final Score (Bern Score)” value [7, 16] was 0 and the “Cell Distance” value [7, 17] was 0. For the same compound, the “Matrix Stain” value [7, 17] was 0, the Morphology [7, 17] was 0 and the “Final Score (Bern Score)” value [7, 17] was 0. For the same compound, the “Cell Distance” value [7, 18] was 0, the “Matrix Stain” value [7, 18] was 0.5 and the Morphology [7, 18] was 0. The “Final Score (Bern Score)” value [7, 18] was 0.5, the “Cell Distance” value [7, 19] was 0 and the “Matrix Stain” value [7, 19] was 0. The Morphology [7, 19] was 0 and the “Final Score (Bern Score)” value [7, 19] was 0.

In the case of Cc1cc2nc3cc(C)c(NCCCCCCNC(=O)c4ccc(-c5ccc(C(=O)NCCCCCCNc6cc7c(cc6C)nc6cc(C)c(N)cc6[n+]7-c6ccccc6)cc5)cc4)cc3[n+](-c3ccccc3)c2cc1N.[Cl-].[Cl-] [Compound 20, (3-amino-7-{[6-({4-[4-({6-[(7-amino-5-chloranuide-2,8-dimethyl-5-phenyl-5λ^6,10-phenazin-5-ylium-3-yl)amino]hexyl}carbamoyl)phenyl]phenyl}formamido)hexyl]amino}-2,8-dimethyl-5-phenyl-5λ^6,10-phenazin-5-ylium-5-e)chloranuide], the “binding to Raji cells” value (Raji cells [1]) is reported as “binding”, the “binding to and staining of Raji cells” value (Raji cells [1]) is reported as “bind to and stain” and the “adherence of Raji cells to rabbit dorsal femoral condyle explants” value (Raji cells [2]) is reported as “promote adherence”. For the same compound, the “Binding to Raji cells (visual staining)” value (Raji cells [3]) was “bind to Raji cells”, the “Binding to rabbit dorsal femoral condyle explants (fluorescence)” value [4] was “strong fluorescence” and the “Adherence of calcein-labeled human MSCs to explants” value [5] was “promote adherence”. The “Adherence of calcein-labeled Raji cells to explants” value [6] was “promoted adherence”, the “Cell Distance” value [7, 9] was 3 and the “Matrix Stain” value [7, 9] was 3. For the same compound, the Morphology [7, 9] was 2.5, the “Final Score (Bern Score)” value [7, 9] was 8.5 and the “Cell Distance” value [7, 11] was 2.5. For the same compound, the “Matrix Stain” value [7, 11] was 2.5, the Morphology [7, 11] was 2.5 and the “Final Score (Bern Score)” value [7, 11] was 7.5. The “Cell Distance” value [7, 13] was 2.5, the “Matrix Stain” value [7, 13] was 2.5 and the Morphology [7, 13] was 2. The “Final Score (Bern Score)” value [7, 13] was 7, the “Cell Distance” value [7, 15] was 2 and the “Matrix Stain” value [7, 15] was 2. For the same compound, the Morphology [7, 15] was 2, the “Final Score (Bern Score)” value [7, 15] was 6 and the “Cell Distance” value [7, 17] was 0. The “Matrix Stain” value [7, 17] was 0, the Morphology [7, 17] was 0 and the “Final Score (Bern Score)” value [7, 17] was 0. The “Cell Distance” value [7, 19] was 0, the “Matrix Stain” value [7, 19] was 0 and the Morphology [7, 19] was 0. The “Final Score (Bern Score)” value [7, 19] was 0 and the “Chondrogenic capacity (in words)” value ([7]; either concentration tested (10 μM and 1 μM) and differentiation medium) was “good chondrogenic capacity”.
